Results from publication PMC7395068, “The evolution of strategies to minimise the risk of human drug-induced liver injury (DILI) in drug discovery and development” (Archives of Toxicology, 2020).
Like-named read-outs stand apart in the source and are kept apart here.

How the values were obtained:
[1] = tested on: hLiMTs; test: Combined HCI (HCS) and cellular ATP 3D assay in hLiMTs; conditions: for AC50: Homo sapiens
[2] = tested on: PHH spheroids; conditions: cited from earlier work
[3] = tested on: hLiMTs; conditions: cited from earlier work
[4] = cited from earlier work
[5] = cited from earlier work; remark: listed apart in the source
[6] = tested on: PHH; conditions: cited from earlier work
[7] = tested on: isolated mouse liver mitochondria; conditions: In vitro Assay; ref Porceddu 2012; cited from earlier work
[8] = tested on: rBsep; conditions: In vitro Assay; ref Dawson 2012; cited from earlier work
[9] = plasma free fraction; cited from earlier work
[10] = tested on: THLE-Null and THLE-3A4 cells; conditions: In vitro Assay; ref Gustafsson 2014; cited from earlier work
[11] = Plasma free fraction (fu) and unbound Cmax (Cmax,u); assay type: in vitro ADME, human; conditions: unbound plasma Cmax
[12] = tested on: HepG2 C3A spheroid, BSEP, Glu/Gal in HepG2 cells, bioactivation; conditions: cited from earlier work
[13] = tested on: HepG2 cells; conditions: cited from earlier work
[14] = read-out: Human plasma Cmax; total plasma Cmax.tot, median of 9 literature references; cited from earlier work
[15] = tested on: HepaRG spheroids; test: Combined HCI (HCS) and cellular ATP 3D assay in HepaRG spheroids; conditions: for AC50: Homo sapiens
[16] = Microtissue model structural based (HCI), combined HCS and ATP, MEC < 25 × Cmax.tot cut-off
[17] = In vitro Assay, ref Proctor 2017

hLiMTs <25x Avg Cmax ATP ([1]; hLiMTs, ATP endpoint, cut-off <25x Avg Cmax): +ve | hLiMTs <100x Avg Cmaxu ATP ([1]; hLiMTs, ATP endpoint, cut-off <100x Avg Cmaxu): +ve (<100x Avg Cmaxu) | hLiMTs <25x Avg Cmax HCS ([1]; hLiMTs, HCS endpoints, cut-off <25x Avg Cmax): +ve | hLiMTs <100x Avg Cmaxu HCS ([1]; hLiMTs, HCS endpoints, cut-off <100x Avg Cmaxu): -ve | hLiMTs <25x Avg Cmax All ([1]; hLiMTs, all endpoints (ATP and HCS), cut-off <25x Avg Cmax): +ve | hLiMTs Cmax max All ([1]; hLiMTs, all endpoints, Cmax max used): +ve | hLiMTs Cmax min All ([1]; hLiMTs, all endpoints, Cmax min used): +ve | hLiMTs <10 uM All ([1]; hLiMTs, all endpoints, cut-off <10 uM): +ve (<10 uM) | hLiMTs <100x Avg Cmaxu All ([1]; hLiMTs, all endpoints, cut-off <100x Avg Cmaxu): +ve (<100x Avg Cmaxu) | Human plasma Cmax,u [11]: 0.161 µM | HepaRG <25x Avg Cmax ATP ([15]; HepaRG, ATP endpoint, cut-off <25x Avg Cmax): +ve | HepaRG <100x Avg Cmaxu ATP ([15]; HepaRG, ATP endpoint, cut-off <100x Avg Cmaxu): -ve | HepaRG <25x Avg Cmax HCS ([15]; HepaRG, HCS endpoints, cut-off <25x Avg Cmax): +ve | HepaRG <100x Avg Cmaxu HCS ([15]; HepaRG, HCS endpoints, cut-off <100x Avg Cmaxu): -ve | HepaRG <25x Avg Cmax All ([15]; HepaRG, all endpoints (ATP and HCS), cut-off <25x Avg Cmax): +ve | HepaRG Cmax max All ([15]; HepaRG, all endpoints, Cmax max used): +ve | HepaRG Cmax min All ([15]; HepaRG, all endpoints, Cmax min used): +ve | HepaRG <10 uM All ([15]; HepaRG, all endpoints, cut-off <10 uM): -ve | HepaRG <100x Avg Cmaxu All ([15]; HepaRG, all endpoints, cut-off <100x Avg Cmaxu): -ve
SMILES: Clc1ccccc1CN1CCc2sccc2C1 [ticlopidine]
AC50 ([1]; read-out: ATP endpoint AC50): 10.7 µM | AC50 ([1]; read-out: HCS endpoint AC50): 115 µM | DILI prediction hLiMTs (HCS-MEC) [1, 16]: +VE (MEC < 25 × Cmax.tot cut-off) | hLiMTs ATP <20 x Cmax ([2]; In vitro Assay, ref Vorrink 2018): +VE (IC20 < 20 × Cmax.tot cut-off) | DILI in vitro assay prediction, Vorrink (2018) ([2]; PHH spheroids, ATP, 14 days, IC20 < 20 × Cmax.tot, ref Vorrink et al. 2018): +VE (IC20 < 20 × Cmax.tot cut-off) | hLiMTs ATP <100uM [3, 17]: +VE (IC50 threshold of 100 µM) | hLiMTs/100uM, Proctor (2017) ([3]; hLiMTs, ATP, IC50 threshold 100 µM, ref Proctor et al. 2017): -VE | DILI severity category (Chen et al. [2016]) ([4]; LTKB DILIrank category, ref Chen et al. 2016): Most | DILI severity category ([4]; human DILI severity, ref Chen et al.): Most | DILI +VE (5-8), DILI -VE (-4) ([4]; ref Chen 2016): +VE | DILI severity category ([4]; ref Chen 2016): vMost-DILI-Concern | Assigned DILI category ([5]; Chen et al. 2016 or literature alignment, ref Chen et al. 2016): 3 | In vivo DILI ([5]; […]): +VE | In vivo DILI ([5]; ref Dawson 2012): +VE | In vivo DILI ([5]; ref Garside 2014): +VE | In vivo DILI ([5]; ref Gustafsson 2014): +VE | In vivo DILI ([5]; ref Porceddu 2012): +VE | In vivo DILI ([5]; ref Proctor 2017): +VE | In vivo DILI ([5]; ref Tolosa 2012): +VE | In vivo DILI ([5]; ref Vorrink 2018): +VE | In vivo DILI ([5]; ref Williams 2019): +VE | In vivo DILI ([5]; ref Xu 2008): +VE | PHH/100uM, Proctor (2017) ([6]; 2D PHH, ATP, IC50 threshold 100 µM, ref Proctor et al. 2017): -VE | PHH ATP <100uM [6, 17]: -VE | in vitro data EC2<=1x Cmax [7]: +VE | in vitro data EC20<=2uM [7]: +VE | Inhibition of rBsep cutoff<1& cmax u>.2 [8]: +VE | Inhibition of rBsep cutoff<3 [8]: +VE | fu [9]: 0.020 | THLE-Null [10]: +VE | Bayesian Machine Learning DILI prediction, Williams (2019) ([12]; Bayesian modeling, ref Williams et al. 2019): +VE | Bayesian Machine Learning ([12]; In vitro Assay, ref Williams 2019): +VE | Structural based (HCI) ([13]; In vitro Assay, ref Tolosa 2012): +VE | DILI in vitro assay prediction, Tolosa (2012) ([13]; Structural based (HCI), HepG2, ref Tolosa et al. 2012): +VE | Cmax [14]: 8.07 µM | AC50 ([15]; HepaRG, read-out: ATP endpoint AC50): 56 µM | AC50 ([15]; HepaRG, read-out: HCS endpoint AC50): 60.8 µM | DILI prediction HepaRG spheroids (HCS-MEC) [15, 16]: +VE (MEC < 25 × Cmax.tot cut-off)
